{"source": "paper PMC11151202", "about": "(Molecular Pharmaceutics, 2024)", "key": {"[1]": {"assay": "Biorelevant solubility", "format": "physicochemical", "conditions": "37 °C, biorelevant media pH 6.5 (3 mM taurocholate, 0.75 mM phospholipids), mean ± SD, n = 3", "description": "The media utilized in this experiment were composed of 2 mM Tris-maleate, 150 mM NaCl, and 1.06 mM CaCl2. The pH of the media was adjusted to pH 6.5. The media were supplemented with FaSSIF powder a day prior to the experiment, resulting in a composition of the final biorelevant media of 3 mM taurocholate and 0.75 mM phospholipids. This final solution will be referred to as the “biorelevant media” throughout this paper. The biorelevant media was left at room temperature at least 2 h prior to usage. […] The suspensions were placed in an oven at 37 °C and were stirred at 200 rpm. Samples were taken at time points of 3, 6, and 24 h and centrifuged at 21,380g (Mikro 200 R, Hettich GmbH, Germany) for 30 min at 37 °C. The resulting supernatant was transferred to a new sample tube and centrifuged again under identical conditions. Samples were diluted 1:10 (v/v) with the mobile phase before analysis. The samples were analyzed using an Agilent 1200 series HPLC system (Agilent Technology Inc., United States) via HPLC, as described above."}, "[2]": {"assay": "Saturation during in vitro testing (saturation ratio)", "format": "physicochemical", "conditions": "all cases: medium- and long-chain LBFs, after dispersion and digestion", "description": "The degree of saturation of drug concentrations in the aqueous phase during the in vitro lipolysis experiment was measured by comparing the measured aqueous phase concentration to the equilibrium drug solubility in samples containing dispersed and digested nondrug loaded formulations under identical conditions. Excess drug or lipophilic salt was added to 2 mL samples of the blank aqueous phase and stirred at 37 °C for 24 h. Samples were withdrawn, centrifuged, and analyzed under conditions identical to those in Section 2.2.9. […] Saturation ratios were evaluated at the end of the dispersion phase and the end of the digestion phase."}, "[3]": {"assay": "Equilibrium solubility studies in lipid excipients / LBFs", "format": "physicochemical", "conditions": "37 °C, venetoclax free base equivalents", "description": "Samples were stirred at 200 rpm (Mixdrive 15 2MAG, Germany) at 37 °C. Samples were withdrawn after 24, 48, and 72 h, followed by centrifugation at 21,000g (Mikro 200R Andreas Hettich GmbH & Co. KG, Germany) for 30 min. The supernatant was extracted and centrifuged again under identical conditions. The resulting supernatant was solubilized 1:10 v/v in a mixture of acetonitrile and ethyl acetate (1:4 v/v), followed by a further 1:10 v/v dilution in acetonitrile and ethyl acetate (4:1 v/v). Samples were analyzed by HPLC as per the method above. All samples were analyzed in triplicate."}, "[4]": {"conditions": "cited from earlier work"}, "[5]": {"assay": "In vitro lipolysis (dispersion and digestion) of LBFs", "format": "physicochemical", "description": "The LBFs were assayed using the in vitro lipolysis method[25] to assess the potential for formulations containing dissolved lipophilic salt to maintain the drug in a solubilized state as the formulation is dispersed and digested under simulated gastrointestinal conditions. Formulations utilized in this experiment were loaded at 80% equilibrium solubility as per Section 2.2.6, at drug doses outlined in Table 3.\nThe in vitro lipolysis experiments were performed using a pH stat apparatus (Metrohm AG, Herisau, Switzerland) comprising an 836 Titando, an 804 Ti Stand, a pH electrode (Metrohm), and two 800 Dosino 20 mL dosing units. The system was operated by Tiamo 2.5 software (Metrohm). The biorelevant medium described in Section 2.2.8 was used for this experiment. The pancreatin extract (8× USP) was reconstituted immediately prior to use by adding 5 mL of the biorelevant medium to 1 g of pancreatin, vortexed thoroughly, and centrifuged at 4000g for 15 min at 4 °C (Centrifuge 5702 R, Eppendorf, Germany); 4 mL of the resulting supernatant was recovered and immediately stored on ice before further usage. […] The amount of NaOH dispensed was recorded by the system and used to assess the rate and extent of digestion. […] As the formulation is a type III-A formulation, ultracentrifugation was not required as the lipids should readily disperse within the biorelevant medium.[25] […]"}}, "data": [{"smiles": "CC1(C)CCC(CN2CCN(c3ccc(C(=O)NS(=O)(=O)c4ccc(NCC5CCOCC5)c([N+](=O)[O-])c4)c(Oc4cnc5[nH]ccc5c4)c3)CC2)=C(c2ccc(Cl)cc2)C1.CCCCCCCCCCOS(=O)(=O)O", "note": "[venetoclax decyl sulfate]", "values": [{"measurement": "biorelevant solubility", "setting": "[1]", "result": "10.3 ± 0.8", "unit": "µg/mL"}]}, {"smiles": "CC1(C)CCC(CN2CCN(c3ccc(C(=O)NS(=O)(=O)c4ccc(NCC5CCOCC5)c([N+](=O)[O-])c4)c(Oc4cnc5[nH]ccc5c4)c3)CC2)=C(c2ccc(Cl)cc2)C1.CCCCC(CC)COC(=O)CC(C(=O)OCC(CC)CCCC)S(=O)(=O)O", "note": "[venetoclax docusate]", "values": [{"measurement": "saturation ratio", "setting": "[2]", "result": "< 10.3"}, {"measurement": "apparent equilibrium solubility in long-chain LBF", "setting": "[3]", "result": "> 25", "unit": "mg/g"}, {"measurement": "apparent equilibrium solubility in medium-chain LBF", "setting": "[3]", "result": "> 50", "unit": "mg/g"}, {"measurement": "biorelevant solubility", "setting": "[1]", "result": "16.2 ± 1.6", "unit": "µg/mL"}]}, {"smiles": "CC1(C)CCC(CN2CCN(c3ccc(C(=O)NS(=O)(=O)c4ccc(NCC5CCOCC5)c([N+](=O)[O-])c4)c(Oc4cnc5[nH]ccc5c4)c3)CC2)=C(c2ccc(Cl)cc2)C1.CCCCCCCCCCCCS(=O)(=O)O", "note": "[venetoclax dodecanesulfonate]", "values": [{"measurement": "apparent equilibrium solubility in long-chain LBF", "setting": "[3]", "result": "> 25", "unit": "mg/g"}, {"measurement": "apparent equilibrium solubility in medium-chain LBF", "setting": "[3]", "result": "> 50", "unit": "mg/g"}, {"measurement": "biorelevant solubility", "setting": "[1]", "result": "9.8 ± 1.4", "unit": "µg/mL"}]}, {"smiles": "CC1(C)CCC(CN2CCN(c3ccc(C(=O)NS(=O)(=O)c4ccc(NCC5CCOCC5)c([N+](=O)[O-])c4)c(Oc4cnc5[nH]ccc5c4)c3)CC2)=C(c2ccc(Cl)cc2)C1.CCCCCCCCCCCCCCCCCCOS(=O)(=O)O", "note": "[venetoclax octadecyl sulfate]", "values": [{"measurement": "biorelevant solubility", "setting": "[1]", "result": "8.4 ± 0.7", "unit": "µg/mL"}]}, {"smiles": "CC1(C)CCC(CN2CCN(c3ccc(C(=O)NS(=O)(=O)c4ccc(NCC5CCOCC5)c([N+](=O)[O-])c4)c(Oc4cnc5[nH]ccc5c4)c3)CC2)=C(c2ccc(Cl)cc2)C1.CCCCCCCCS(=O)(=O)O", "note": "[venetoclax octanesulfonate]", "values": [{"measurement": "biorelevant solubility", "setting": "[1]", "result": "7.4 ± 0.7", "unit": "µg/mL"}]}, {"smiles": "CC1(C)CCC(CN2CCN(c3ccc(C(=O)NS(=O)(=O)c4ccc(NCC5CCOCC5)c([N+](=O)[O-])c4)c(Oc4cnc5[nH]ccc5c4)c3)CC2)=C(c2ccc(Cl)cc2)C1.CCCCCCCCOS(=O)(=O)O", "note": "[venetoclax octyl sulfate]", "values": [{"measurement": "biorelevant solubility", "setting": "[1]", "result": "7.7 ± 0.6", "unit": "µg/mL"}]}, {"smiles": "CC1(C)CCC(CN2CCN(c3ccc(C(=O)NS(=O)(=O)c4ccc(NCC5CCOCC5)c([N+](=O)[O-])c4)c(Oc4cnc5[nH]ccc5c4)c3)CC2)=C(c2ccc(Cl)cc2)C1", "note": "[venetoclax]", "values": [{"measurement": "solubility in medium- and long-chain triglycerides", "setting": "[4]", "result": "< 1000", "unit": "µg/mL"}, {"measurement": "concentration of venetoclax in the aqueous phase", "setting": "[5]; LBFs loaded with free base, dispersion and digestion", "result": "< 50", "unit": "µg/mL"}, {"measurement": "dose precipitated", "setting": "[5]; medium- and long-chain formulations", "result": "greater than 80%"}, {"measurement": "solubility", "setting": "[1]; biorelevant media (FaSSIF-supplemented Tris-maleate buffer), fassif, thermodynamic from solid", "result": "5.5 ± 1", "unit": "µg/mL"}]}]}
